According to PMC10721329, “Quisinostat is a brain-penetrant radiosensitizer in glioblastoma” (JCI Insight, 2023):
“And” between values parts separate entries of the source, which are not always exact repeats. Identical values can stand only once.

Key:
BT145 cells = assay: QST + IR sulforhodamine B cytotoxicity assay; assay type: cell-based, human; conditions: replicates
Experimental: (§1) There is preclinical evidence that HDACis may be effective in enhancing the sensitivity of tumor cells to IR therapy ([24], [28]–[31]). We hypothesized that the accumulation of DNA damage induced by QST, in combination with IR, may synergistically reduce GSC viability. To examine this hypothesis, we treated 2 cell lines (BT145 and GB126) with increasing nanomolar doses of QST (10–1000 nM) and increasing doses of IR (2–4 Gy) (Figure 4, A and B). […] We then analyzed our combinatorial dose-response cell viability data using SynergyFinder, an application that assigns synergy scores using various major reference models ([32]).
(§2) GSCs were seeded in laminin-coated tissue culture–treated 96-well plates (clear bottom, white plate; Corning) at a density of 1000–5000 cells per well (cell line dependent) in GSC media. U87-MG were seeded using their normal growth conditions without laminin (10% bovine calf serum in DMEM). All cells were incubated at 37°C and allowed to adhere overnight. The next day, cells were treated with incremental concentrations of QST (Selleckchem; 0, 10, 25, 50, 100, 250, 500, and 1000 nM) diluted in media. Cells treated without QST were treated with DMSO diluted in media. Following treatment with QST, cells were grown for 3 to 5 days (cell line dependent), and cell viability was measured and quantified. All cell viability measurements were performed using the CellTiter-Glo luminescent cell viability assay (Promega) following the manufacturer’s instructions. For the sulforhodamine B colorimetric assay for cytotoxicity, the protocol was performed as described elsewhere ([33]). All cell viability results represent the mean of at least 3 biological replicates, each containing 3 technical replicates.

GB126 cells = assay: QST + IR sulforhodamine B cytotoxicity assay; assay type: cell-based, human; conditions: replicates
Experimental: as §1, §2

[1] = Stability in human plasma at 37°C; assay type: in vitro ADME; conditions: for %stability in human plasma, mean / stability in human plasma, [QST], % of control: 37 C; for %stability in human plasma, mean: mean of 3; for stability in human plasma, [QST], % of control: single data points
Experimental: Hydroxamic acid–based compounds have been reported to display poor stability and high plasma clearance due to the presence of arylesterases and carboxylesterases in rodent blood ([34]). Therefore, we measured the stability of QST in mouse plasma and brain to determine whether drug degradation occurred during our sample preparations and equilibrium dialyses for the determination of unbound drug level (performed at 37°C). […] QST degradation was also observed in mouse brain homogenate (Figure 6B). However, perfusion of mice before brain collection prevented rapid drug degradation in the brain matrix. […] Degradation of QST can also be constrained if plasma and brain samples are processed at 4°C (Supplemental Figure 4A). All subsequent sample preparations were therefore performed on ice-cold baths to avoid degradation of QST in our PK analyses. […] The observed stability is probably due to the absence of esterases in human matrices, which are responsible for degradation of QST ([34]). Because we employed QST in several in vitro studies (Figures 1–4), the stability of the molecule was also tested in the cell media used to culture GSCs (neurobasal medium; see Methods).
Stability Study in Mouse Plasma, Mouse Brain, Human Plasma, Human Brain, and Neural […]
The stability of QST was determined in BALB/c mouse plasma, male nude athymic perfused and nonperfused mouse brain homogenate (1:9 w/v of PBS; pH 7.4), human brain (obtained from VRL Eurofins) homogenate (1:4 w/v of PBS; pH 7.4), pooled human plasma (Innovative Research), and neurobasal media. QST stock solutions (1 mM) were prepared in acetonitrile, subsequently diluted in a 40% methanol mixture, and added t o the matrices to make final concentrations of 100 nM or 10 nM. Then 50 or 30 µL of either plasma or brain homogenate containing QST were aliquoted into 1.5-mL microcentrifuge tubes (Eppendorf) and were incubated at either 4 °C or 37 °C for 0, 2, 4, 6, 12, or 24 hours (n = 3 at each time point). […]
Plasma and brain […]
homogenate samples were stored at −80 °C until LC-MS/MS analysis. […]

[2] = Quisinostat log[nm] 1, 0 Gy, control 0 Gy = 1
[3] = Quisinostat log[nm] 1.39794, 0 Gy
[4] = Quisinostat log[nm] 1.39794, 2 Gy
[5] = Quisinostat log[nm] 1.39794, 4 Gy
[6] = Quisinostat log[nm] 1.69897, 0 Gy
[7] = Quisinostat log[nm] 1.69897, 2 Gy
[8] = Quisinostat log[nm] 1.69897, 4 Gy

Structure (SMILES): Cn1cc(CNCC2CCN(c3ncc(C(=O)NO)cn3)CC2)c2ccccc21 [QST, quisinostat]
- SRB assay, relative signal (BT145 cells; [2]): 0.6967 and 0.6385 and 0.6781
- SRB assay, relative signal (BT145 cells; Quisinostat log[nm] 1, 2 Gy): 0.3422 and 0.2636 and 0.3938
- SRB assay, relative signal (BT145 cells; Quisinostat log[nm] 1, 4 Gy): 0.2576 and 0.2273 and 0.1797
- SRB assay, relative signal (BT145 cells; [3]): 0.5611 and 0.5715 and 0.6072
- SRB assay, relative signal (BT145 cells; [4]): 0.3016 and 0.237 and 0.3379
- SRB assay, relative signal (BT145 cells; [5]): 0.251 and 0.1999 and 0.186
- SRB assay, relative signal (BT145 cells; [6]): 0.3909 and 0.4995 and 0.4801
- SRB assay, relative signal (BT145 cells; [7]): 0.2862 and 0.2318 and 0.3442
- SRB assay, relative signal (BT145 cells; [8]): 0.2294 and 0.2058 and 0.1789
- SRB assay, relative signal (BT145 cells; Quisinostat log[nm] 2, 0 Gy): 0.4525 and 0.4659 and 0.3488
- SRB assay, relative signal (BT145 cells; Quisinostat log[nm] 2, 2 Gy): 0.304 and 0.2255 and 0.2864
- SRB assay, relative signal (BT145 cells; Quisinostat log[nm] 2, 4 Gy): 0.2104 and 0.1978 and 0.1926
- SRB assay, relative signal (GB126 cells; [2]): 0.6958 and 0.7271 and 0.697
- SRB assay, relative signal (GB126 cells; Quisinostat log[nm] 1, 2 Gy): 0.4678 and 0.5322 and 0.5047
- SRB assay, relative signal (GB126 cells; Quisinostat log[nm] 1, 4 Gy): 0.3918 and 0.337 and 0.3993
- SRB assay, relative signal (GB126 cells; [3]): 0.6332 and 0.6836 and 0.5963
- SRB assay, relative signal (GB126 cells; [4]): 0.4122 and 0.4783 and 0.4726
- SRB assay, relative signal (GB126 cells; [5]): 0.3723 and 0.2821 and 0.3826
- SRB assay, relative signal (GB126 cells; [6]): 0.574 and 0.5854 and 0.5737
- SRB assay, relative signal (GB126 cells; [7]): 0.3752 and 0.4419 and 0.4352
- SRB assay, relative signal (GB126 cells; [8]): 0.3383 and 0.2983 and 0.3763
- SRB assay, relative signal (GB126 cells; Quisinostat log[nm] 2, 0 Gy): 0.4806 and 0.4569 and 0.5515
- SRB assay, relative signal (GB126 cells; Quisinostat log[nm] 2, 2 Gy): 0.3411 and 0.3753 and 0.4318
- SRB assay, relative signal (GB126 cells; Quisinostat log[nm] 2, 4 Gy): 0.3084 and 0.2397 and 0.3383
- %stability in human plasma, mean ([1]; 10 nM, 0 hrs): 100.0 % of control
- stability in human plasma, [QST], % of control ([1]; 10 nM, 0 hrs): 96.2 % of control and 101.9 % of control
- stability in human plasma, [QST], % of control ([1]; 10 nM, 2 hrs): 98.7 % of control and 101.4 % of control and 99.6 % of control
- %stability in human plasma, mean ([1]; 10 nM, 6 hrs): 99.5 % of control
- stability in human plasma, [QST], % of control ([1]; 10 nM, 6 hrs): 100.4 % of control and 102 % of control and 96.1 % of control
- %stability in human plasma, mean ([1]; 10 nM, 24 hrs): 97.7 % of control
- stability in human plasma, [QST], % of control ([1]; 10 nM, 24 hrs): 93.7 % of control and 94.6 % of control and 104.9 % of control
- %stability in human plasma, mean ([1]; 100 nM, 0 hrs): 100.0 % of control
- stability in human plasma, [QST], % of control ([1]; 100 nM, 0 hrs): 96.3 % of control and 100 % of control and 103.7 % of control
- %stability in human plasma, mean ([1]; 100 nM, 2 hrs): 102.1 % of control
- stability in human plasma, [QST], % of control ([1]; 100 nM, 2 hrs): 105.4 % of control and 102.2 % of control and 98.8 % of control
- %stability in human plasma, mean ([1]; 100 nM, 6 hrs): 103.6 % of control
- stability in human plasma, [QST], % of control ([1]; 100 nM, 6 hrs): 105.9 % of control and 102.8 % of control and 102 % of control
- %stability in human plasma, mean ([1]; 100 nM, 24 hrs): 99.0 % of control
- stability in human plasma, [QST], % of control ([1]; 100 nM, 24 hrs): 101.6 % of control and 97 % of control and 98.2 % of control
- stability in human plasma ([1]; 37°C): completely stable
